In US6991809B2, “Particles with improved solubilization capacity” (Lyotropic Therapeutics, Inc., priority 2001, dated 2006):

Experiments:
[1] = Solubility of paclitaxel in eugenol and in egg phosphatidylcholine/eugenol/water mixture; type: physicochemical
Description: The solubility of a given active in a mixture of hydrophobe and lipid is typically a very strongly increasing function of an increasing hydrophobe:lipid ratio, because the hydrophobe can generally be chosen specifically for its ability to solubilize the particular active whereas the choice of lipid has much more to do with its ability to form liquid crystals (in the presence of the hydrophobe, in particular).

[2] = Solubilizing paclitaxel in GRAS essential oils; type: physicochemical

solubility in lipid/eugenol/water mixture ([1]; in a mixture of 42% egg phosphatidylcholine, 35% eugenol, and 23% water): less than 1.5%
solubility in eugenol ([1]; in eugenol): over 15 % by weight
Paclitaxel solubility (w/w, approx) ([2]; in essential oil: Oil of bay): ~16% w/w
Paclitaxel solubility (w/w, approx) ([2]; in essential oil: Sweet basil): ~7% w/w
Paclitaxel solubility (w/w, approx) ([2]; in essential oil: Thyme): ~10% w/w
SMILES: CC(=O)O[C@H]1C(=O)[C@@]2(C)[C@H]([C@H](OC(=O)c3ccccc3)[C@]3(O)C[C@H](OC(=O)[C@H](O)[C@@H](NC(=O)c4ccccc4)c4ccccc4)C(C)=C1C3(C)C)[C@]1(OC(C)=O)CO[C@@H]1C[C@@H]2O [Paclitaxel]
